Experimental findings from patent US4783482A, “Bis(thiocyanato)palladium(II)complexes” (Engelhard Corporation, priority 1985, dated 1988) are described below.

This test deals with S180 ascites. Description: Anti-tumor evaluation: % increase in life span (% ILS) and survivors, S180 ascites in female CFW Swiss mice. It counts as in vivo. The note with it: for Best % ILS: best over doses. As to the method: The above-prepared compounds were evaluated against S180 ascites in female CFW Swiss mice. The mice were weighed (average weight: 20 g), placed into cages (four or six mice to a cage), and on day zero the mice were inoculated with 0.2 ml of a freshly prepared saline suspension (0.15 M NaCl) containing 1×10^7 tumor cells/ml or a total of 2×10^6 cells This inoculum was freshly prepared using "transfer" mice, which had been injected with tumor cells the previous week; it was obtained via the following steps: (1) the removal of cells from the peritoneal cavity of the sacrificed transfer mouse, (2) alternate centrifugation and washing operations (2-3 times with cold saline) to remove blood and other components, and (3) dilution of the volume of the packed cell with saline (1:3). A final centrifugation was carried out at 1000 RPM over a two minute period. A cell count was made on a 2,000-fold dilution of this 1:3 suspension by means of a Coulter Counter. A final dilution to 1×10^7 cells/ml was made, based on the average count.
On day 1, solutions of the test compounds were prepared, and each mouse in a set of four or six were injected with the same test compound at the same dosage. The doses were based on the average weight of the animals (cage weight). Also, beginning on day 1, two controls were employed containing six mice per control:
(1) Normal Control: This consisted solely of the carrier or diluent used in combination with the test compound; and
(2) Positive Control: This consisted solely of known anti-tumor agent cis-[Pt(NH3)2 Cl2 ] in saline (8 mg/kg) to test the response of the biological system.
The effectiveness of a test compound was measured in terms of the % increase in life span (%ILS) of the test mice relative to the Normal Control (Calculated from the day of tumor inoculation, i.e., day zero). To standardize the test data and permit intercomparisons, the day of evaluation was arbitrarily taken as that day corresponding to twice the mean life span (or average day of death) of the control. This established a practical upper limit of 100% on the %ILS attainable. For calculation purposes, the survivors of the day of evaluation were considered to have died on that day. The %ILS was calculated as follows: [formula] ILS values in excess of 50% were interpreted as antitumor activity, whereas values in excess of 75% indicated excellent antitumor activity.
All test compounds were evaluated in water containing 0.1-0.3% of the suspending agent "Klucel" (hydroxypropylcellulose).
Tables 3 and 4, infra, show the criticality of the ring size and the thiocyanato substituents, respectively. The protocols for determining effectiveness for the products in Tables 3 and 4 were identical to the procedure employed for determining the anti-tumor effectiveness of the products in Table 2.

Setting [1] is: dose 10 mg/kg, on day of evaluation.
[2] abbreviates: dose 20 mg/kg, on day of evaluation.
Setting [3] is: dose 40 mg/kg, on day of evaluation.
The mark [4] stands for this setting: dose 80 mg/kg, on day of evaluation.
The mark [5] stands for this setting: dose 160 mg/kg, on day of evaluation.
Where [6] appears, read: dose 5 mg/kg, on day of evaluation (twice mean life span of control).
[7] abbreviates: dose 320 mg/kg, on day of evaluation.

On to `NCCN.O=N[O-].O=N[O-].[Pd+2]` [Comp. Ex. F, Dinitro(Ethylenediamine)palladium(II)], for which the “% ILS” value (dose 10 mg/kg) turned out to be 2%; the “% ILS” value (dose 20 mg/kg) worked out at 6%; the “% ILS” value (dose 40 mg/kg) is recorded as -15%; the “% ILS” value (dose 80 mg/kg) is reported as -59%; the “% ILS” value (dose 160 mg/kg) was -87%. Moreover, the Survivors runs as follows: under setting [1], 0 of 4; under setting [2], 0 of 4; under setting [3], 0 of 4; under setting [4], 0 of 4; under setting [5], 0 of 4.

Turning to `N#C[S-].N#C[S-].NCC(=O)CN.[Pd+2]` [Comp. Ex. E, Bis(Thiocyanato)diaminoacetonepalladium(II)], the “% ILS” value runs as follows: (dose 5 mg/kg) 3%; (dose 10 mg/kg) 8%; (dose 20 mg/kg) 13%; (dose 40 mg/kg) 3%; (dose 80 mg/kg) 1%; (dose 160 mg/kg) 13%. For the same molecule, the Survivors is given as 0 of 4 under setting [6]; 0 of 4 under setting [1]; 0 of 4 under setting [2]; 0 of 4 under setting [3]; 0 of 4 under setting [4]; 0 of 4 under setting [5].

Turning to `NC1CCCCC1N.O=[N+]([O-])[Pd][N+](=O)[O-]` (stereo not drawn) [Comp. Ex. H, Dinitro(1,2-diaminocyclohexane)palladium(II)], the “% ILS” value by setting is: (dose 10 mg/kg) 12%; (dose 20 mg/kg) 3%; (dose 40 mg/kg) -3%; (dose 80 mg/kg) 21%. Further, the Survivors under setting [1] is reported as 0 of 4, the Survivors under setting [2] is given as 0 of 4, the Survivors under setting [3] is listed as 0 of 4 and the Survivors under setting [4] is given as 0 of 4.

Consider `N#C[S][Pd][S]C#N.NCCCCN` [Comp. Ex. B, bis(thiocyanato)-1,4-diaminobutanepalladium(II)], for which the “% ILS” value by setting is: (dose 10 mg/kg) -1%; (dose 20 mg/kg) 15%; (dose 40 mg/kg) -4%; (dose 80 mg/kg) -21%; (dose 160 mg/kg) 47%; (dose 320 mg/kg) 2%. For the same molecule, the Survivors under setting [1] is 0 of 6; the Survivors under setting [2] is reported as 0 of 6; the Survivors under setting [3] is 0 of 6; the Survivors under setting [4] is 0 of 5; the Survivors under setting [5] is given as 0 of 5; the Survivors under setting [7] is recorded as 0 of 5.

As for `N#C[S][Pd-2]1([S]C#N)[NH2+]c2cccc3cccc(c23)[NH2+]1` [Comp. Ex. D, bis(thiocyanato)-1,8-diaminonaphthalenepalladium(II)], the “% ILS” value is -11% (dose 10 mg/kg); -9% (dose 20 mg/kg); -11% (dose 40 mg/kg); -19% (dose 80 mg/kg); -28% (dose 160 mg/kg); 48% (dose 320 mg/kg). The Survivors runs as follows: under setting [1], 0 of 6; under setting [2], 0 of 6; under setting [3], 0 of 6; under setting [4], 0 of 6; under setting [5], 0 of 6; under setting [7], 1 of 6.

On to `C[NH+]1CC[NH+](C)[Pd-2]1([S]C#N)[S]C#N` (stereo not drawn) [Ex. 4, Bis(Thiocyanato)-N,N'-Dimethylethylenediaminepalladium(II)], for which the “Best % ILS” value is on record as 62%. The “% ILS” value (dose 5 mg/kg) is recorded as -2%. Also, the Survivors under setting [6] is listed as 0 of 6. In addition, under “dose 10 mg/kg”, the “% ILS” value is recorded as 1%. Moreover, the Survivors under setting [1] is 0 of 6. For the same molecule, the “% ILS” value (dose 20 mg/kg) is listed as -5%. Also, the Survivors under setting [2] is given as 0 of 6. Besides, the “% ILS” value (dose 40 mg/kg) amounted to 18%. Further, under setting [3], the Survivors is listed as 1 of 6. Further, the “% ILS” value (dose 80 mg/kg) amounted to 62%. In addition, the Survivors under setting [4] is given as 2 of 6. For the same molecule, the “% ILS” value (dose 160 mg/kg) is listed as -45%. The Survivors under setting [5] is recorded as 1 of 6.

On to `NCCCN.O=[N+]([O-])[Pd][N+](=O)[O-]` [Comp. Ex. G, dinitro(1,3-diaminopropane)palladium(II)], for which the “% ILS” value is given as 13% (dose 10 mg/kg); 16% (dose 20 mg/kg); 27% (dose 40 mg/kg); 0% (dose 80 mg/kg); -89% (dose 160 mg/kg). In addition, the Survivors by setting is: under setting [1], 0 of 4; under setting [2], 0 of 4; under setting [3], 0 of 4; under setting [4], 1 of 4; under setting [5], 0 of 4.

For the molecule `N#C[S][Pd-2]1([S]C#N)[NH2+]CCC[NH2+]1` [Comp. Ex. A, bis(thiocyanato)-1,3-diaminopropanepalladium(II)], the “% ILS” value is on record as 1% (dose 10 mg/kg); 9% (dose 20 mg/kg); -4% (dose 40 mg/kg); -70% (dose 80 mg/kg); -88% (dose 160 mg/kg); -93% (dose 320 mg/kg). The Survivors under setting [1] was 0 of 4; the Survivors under setting [2] is listed as 0 of 4; the Survivors under setting [3] is reported as 0 of 4; the Survivors under setting [4] is on record as 0 of 4; the Survivors under setting [5] is 0 of 4; the Survivors under setting [7] is 0 of 4.

As to `N#C[S-].N#C[S-].NCCN.[Pd+2]` [Ex. 1, Bis(Thiocyanato)ethylenediaminepalladium(II)], the “Best % ILS” value came to 79%. The “% ILS” value (dose 10 mg/kg) is listed as 2%. The Survivors under setting [1] is reported as 0 of 4. Also, the “% ILS” value (dose 20 mg/kg) is given as 18%. Further, the Survivors under setting [2] was 0 of 4. In addition, under “dose 40 mg/kg”, the “% ILS” value came to 79%. Also, the Survivors under setting [3] is 0 of 4. Besides, for the setting “dose 80 mg/kg”, the “% ILS” value was 2%. Besides, under setting [4], the Survivors is given as 1 of 4. Further, the “% ILS” value (dose 160 mg/kg) was -87%. For the same molecule, the Survivors under setting [5] is 0 of 4. For the same molecule, the “% ILS” value (dose 320 mg/kg) was -87%. Under setting [7], the Survivors is reported as 0 of 4.

`N#C[S][Pd]1([S]C#N)[NH]CC(O)C[NH]1` [Comp. Ex. C, bis(thiocyanato)-1,3-diamino-2-propanolpalladium(II)]: the “% ILS” value reads like this: (dose 10 mg/kg) -4%; (dose 20 mg/kg) -7%; (dose 40 mg/kg) -8%; (dose 80 mg/kg) -76%; (dose 160 mg/kg) -87%; (dose 320 mg/kg) -92%. Besides, the Survivors is, setting by setting: under setting [1], 0 of 6; under setting [2], 0 of 6; under setting [3], 0 of 6; under setting [4], 0 of 6; under setting [5], 0 of 6; under setting [7], 0 of 6.

For `[I][Pd]1([I])[NH]C2CCCCC2[NH]1` (stereo not drawn) [Comp. Ex. M, Diiodo(1,2-Diaminocyclohexane)palladium(II)], the “% ILS” value is on record as -4% (dose 5 mg/kg); -9% (dose 10 mg/kg); -20% (dose 20 mg/kg); -15% (dose 40 mg/kg); -16% (dose 80 mg/kg); 77% (dose 160 mg/kg). The Survivors by setting is: under setting [6], 0 of 4; under setting [1], 0 of 4; under setting [2], 0 of 4; under setting [3], 0 of 4; under setting [4], 0 of 4; under setting [5], 1 of 4.

`CC1C[NH][Pd]([S]C#N)([S]C#N)[NH]1` (stereo not drawn) [Ex. 2, Bis(Thiocyanato)-1,2-Diaminopropanepalladium(II)]: the “Best % ILS” value is reported as 59%. For the same molecule, the “% ILS” value (dose 5 mg/kg) turned out to be 16%. Further, the Survivors under setting [6] is reported as 0 of 6. In addition, the “% ILS” value (dose 10 mg/kg) is 13%. Further, under setting [1], the Survivors is recorded as 0 of 6. Besides, the “% ILS” value (dose 20 mg/kg) was 17%. Further, under setting [2], the Survivors is recorded as 0 of 6. Further, for the setting “dose 40 mg/kg”, the “% ILS” value was determined as 59%. For the same molecule, the Survivors under setting [3] is reported as 2 of 6. Moreover, where the note is “dose 80 mg/kg”, the “% ILS” value is on record as -21%. Besides, under setting [4], the Survivors is given as 1 of 6. For the same molecule, the “% ILS” value (dose 160 mg/kg) is listed as -74%. Also, the Survivors under setting [5] is recorded as 0 of 6.

Take `Nc1ccccc1N.O=N[O-].O=N[O-].[Pd+2]` [Comp. Ex. I, dinitro(o-phenylenediamine)palladium(II)]: the “% ILS” value was 21% (dose 10 mg/kg), 3% (dose 20 mg/kg), 29% (dose 40 mg/kg) and 19% (dose 80 mg/kg). Moreover, the Survivors is, setting by setting: under setting [1], 0 of 4; under setting [2], 0 of 4; under setting [3], 1 of 4; under setting [4], 0 of 4.
